Measurements published in patent US9994570B2, “Bridged diazepane orexin receptor antagonists” (MERCK SHARP & DOHME CORP., priority 2014, dated 2018).

Experiments:
human orexin-2 receptor [1] = target: T1, human orexin-2 receptor (Homo sapiens, UniProt O43614); assay: FLIPR Ca2+ flux assay, OX2R; type: cell-based; conditions: for IC50: CHO cells expressing the human orexin-2 receptor, agonist 70 pM Ala-6,12 orexin-A; for Fold Selective: OX1R FLIPR / OX2R FLIPR
T1 construct: expressed in transfected cells; host or cells: CHO cells (grown under G418 selection)
T1 sequence (O43614 1-444): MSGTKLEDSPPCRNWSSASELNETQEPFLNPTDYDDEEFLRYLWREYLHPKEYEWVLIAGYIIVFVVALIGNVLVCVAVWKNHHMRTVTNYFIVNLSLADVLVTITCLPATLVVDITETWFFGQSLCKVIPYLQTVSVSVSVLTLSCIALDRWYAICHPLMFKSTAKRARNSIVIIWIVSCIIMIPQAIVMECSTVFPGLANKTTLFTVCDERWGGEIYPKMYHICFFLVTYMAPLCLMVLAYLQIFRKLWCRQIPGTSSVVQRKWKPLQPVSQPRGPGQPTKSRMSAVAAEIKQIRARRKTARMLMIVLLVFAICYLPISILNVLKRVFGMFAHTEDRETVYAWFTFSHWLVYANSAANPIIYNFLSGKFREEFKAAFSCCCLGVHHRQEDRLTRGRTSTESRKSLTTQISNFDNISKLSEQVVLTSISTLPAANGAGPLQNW
Description: (§1) The utility of the compounds in accordance with the present invention as orexin receptor OX1R and/or OX2R antagonists may be readily determined without undue experimentation by methodology well known in the art, including the “FLIPR Ca^2+ Flux Assay” (Okumura et al., Biochem. Biophys. Res. Comm. 280:976-981, 2001). In a typical experiment the OX1 and OX2 receptor antagonistic activity of the compounds of the present invention was determined in accordance with the following experimental method. For intracellular calcium measurements, Chinese hamster ovary (CHO) cells expressing the rat orexin-1 receptor or the human orexin-2 receptor, are grown in Iscove's modified DMEM containing 2 mM L-glutamine, […], 1% hypoxanthine-thymidine supplement, 100 U/ml penicillin, 100 μg/ml streptomycin and 10% heat-inactivated fetal calf serum (FCS). The cells are seeded at 20,000 cells/well into Becton-Dickinson black 384-well clear bottom sterile plates coated with poly-D-lysine. All reagents were from GIBCO-Invitrogen Corp. The seeded plates are incubated overnight at 37° C. and 5% CO2. Ala-6,12 human orexin-A as the agonist is prepared as a 1 mM stock solution in 1% bovine serum albumin (BSA) and diluted in assay buffer (HBSS containing 20 mM HEPES, 0.1% BSA and 2.5 mM probenecid, pH7.4) for use in the assay at a final concentration of 70 pM. Test compounds are prepared as 10 mM stock solution in DMSO, then diluted in 384-well plates, first in DMSO, then assay buffer. On the day of the assay, cells are washed 3 times with 100 μl assay buffer and then incubated for 60 min (37° C., 5% CO2) in 60 μl assay buffer containing 1 μM Fluo-4AM ester, 0.02% pluronic acid, and 1% BSA. The dye loading solution is then aspirated and cells are washed 3 times with 100 μl assay buffer. 30 μl of that same buffer is left in each well. Within the Fluorescent Imaging Plate Reader (FLIPR, Molecular Devices), test compounds are added to the plate in a volume of 25 μl, incubated for 5 min and finally 25 μl of agonist is added. Fluorescence is measured for each well at 1 second intervals for 5 minutes and the height of each fluorescence peak is compared to the height of the fluorescence peak induced by 70 pM Ala-6,12 orexin-A with buffer in place of antagonist. For each antagonist, IC50 value (the concentration of compound needed to inhibit 50% of the agonist response) is determined. Alternatively, compound potency can be assessed by a radioligand binding assay (described in Bergman et. al. Bioorg. Med. Chem. Lett. 2008, 18, 1425-1430) in which the inhibition constant (Ki) is determined in membranes prepared from CHO cells expressing either the OX1 or OX2 receptor. The intrinsic orexin receptor antagonist activity of a compound which may be used in the present invention may be determined by these assays.

rat orexin-1 receptor = target: T2, rat orexin-1 receptor (Rattus norvegicus, UniProt P56718); assay: FLIPR Ca2+ flux assay, OX1R; type: cell-based; conditions: CHO cells expressing the rat orexin-1 receptor; agonist 70 pM Ala-6,12 orexin-A
T2 construct: expressed in transfected cells; host or cells: CHO cells (grown under G418 selection)
T2 sequence (P56718 1-416): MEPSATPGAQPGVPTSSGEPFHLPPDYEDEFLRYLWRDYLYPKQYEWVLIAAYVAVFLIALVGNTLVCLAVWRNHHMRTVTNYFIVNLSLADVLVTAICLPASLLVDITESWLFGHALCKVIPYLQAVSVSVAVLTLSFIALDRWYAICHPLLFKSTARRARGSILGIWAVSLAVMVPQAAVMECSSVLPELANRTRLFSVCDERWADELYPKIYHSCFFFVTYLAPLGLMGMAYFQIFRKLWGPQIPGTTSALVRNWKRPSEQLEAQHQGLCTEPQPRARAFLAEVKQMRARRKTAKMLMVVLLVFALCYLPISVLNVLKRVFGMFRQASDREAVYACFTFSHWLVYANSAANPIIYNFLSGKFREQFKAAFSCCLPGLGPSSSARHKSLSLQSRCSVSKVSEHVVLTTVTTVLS
Description: as §1

human orexin-2 receptor [2] = target: T1, human orexin-2 receptor; conditions: comparison compound disclosed in U.S. Pat. No. 8,685,961; cited from earlier work

For `Cc1cc(C)nc(N2CC3CC2CN(C(=O)c2cccnc2OCC2CCC2)C3)n1` (stereo not shown) [Example 42, 3-{[2-(cyclobutylmethoxy)pyridin-3-yl]carbonyl}-6-(4,6-dimethylpyrimidin-2-yl)-3,6-diazabicyclo[3.2.1]octane], the IC50 (human orexin-2 receptor [1]) was 15 nM, the “Fold Selective” value (human orexin-2 receptor [1]) was 42 and the IC50 (rat orexin-1 receptor) was 628 nM.

For `Cc1cc(C)nc(N2CC3CC2CN(C(=O)c2cccnc2OCC(F)(F)C(F)F)C3)n1` (stereo not shown) [Example 43, 6-(4,6-dimethylpyrimidin-2-yl)-3-{[2-(2,2,3,3-tetrafluoropropoxy)pyridin-3-yl]carbonyl}-3,6-diazabicyclo[3.2.1]octane], the IC50 (human orexin-2 receptor [1]) was 5 nM, the “Fold Selective” value (human orexin-2 receptor [1]) was 41 and the IC50 (rat orexin-1 receptor) was 206 nM.

For `Cc1cc(C)nc(N2CC3CC2CN(C(=O)c2cccnc2OCCC(F)(F)F)C3)n1` (stereo not shown) [Example 44, 6-(4,6-dimethylpyrimidin-2-yl)-3-{[2-(3,3,3-trifluoropropoxy)pyridin-3-yl]carbonyl}-3,6-diazabicyclo[3.2.1]octane], the IC50 (human orexin-2 receptor [1]) was 21 nM, the “Fold Selective” value (human orexin-2 receptor [1]) was 44 and the IC50 (rat orexin-1 receptor) was 932 nM.

For `Cc1cc(C)nc(N2CC3CC2CN(C(=O)c2cccnc2OCC(C)O)C3)n1` (stereo not shown) [Example 45, 1-[(3-{[6-(4,6-dimethylpyrimidin-2-yl)-3,6-diazabicyclo[3.2.1]oct-3-yl]carbonyl}pyridin-2-yl)oxy]propan-2-ol], the IC50 (human orexin-2 receptor [1]) was 90 nM, the “Fold Selective” value (human orexin-2 receptor [1]) was over 111 and the IC50 (rat orexin-1 receptor) was over 10000 nM.

For `CO[C@@H]1CCN(c2ncccc2C(=O)N2CC3CC(C2)N(c2nc(C)cc(C)n2)C3)C1` (stereo partly drawn) [Example 46, (6-(4,6-dimethylpyrimidin-2-yl)-3,6-diazabicyclo[3.2.1]octan-3-yl)(2-((R)-3-methoxypyrrolidin-1-yl)pyridin-3-yl)methanone], the IC50 (human orexin-2 receptor [1]) was 90 nM, the “Fold Selective” value (human orexin-2 receptor [1]) was over 111 and the IC50 (rat orexin-1 receptor) was over 10000 nM.

With `Cc1cc(C)nc(N2CC3CC2CN(C(=O)c2nccnc2OCC2CC2)C3)n1` (stereo not shown) [Example 48, (3-(cyclopropylmethoxy)pyrazin-2-yl)(6-(4,6-dimethylpyrimidin-2-yl)-3,6-diazabicyclo[3.2.1]octan-3-yl)methanone] the IC50 (human orexin-2 receptor [1]) was 37 nM, the “Fold Selective” value (human orexin-2 receptor [1]) was 103 and the IC50 (rat orexin-1 receptor) was 3830 nM.

With `Cc1cc(C)nc(N2CC3CC2CN(C(=O)c2nccnc2OCC(F)F)C3)n1` (stereo not shown) [Example 49, 3-{[3-[2,2-difluoroethoxy)pyrazin-2-yl]carbonyl}-6-(4,6-dimethylpyrimidin-2-yl)-3,6-diazabicyclo[3.2.1]octane] the IC50 (human orexin-2 receptor [1]) was 33 nM, the “Fold Selective” value (human orexin-2 receptor [1]) was 117 and the IC50 (rat orexin-1 receptor) was 3860 nM.

For `Cc1cc(C)nc(N2CC3CC2CN(C(=O)c2nccnc2OCC(F)(F)F)C3)n1` (stereo not shown) [Example 50, 6-(4,6-dimethylpyrimidin-2-yl)-3-{[3-(2,2,2-trifluoroethoxy)pyrazin-2-yl]carbonyl}-3,6-diazabicyclo[3.2.1]octane], the IC50 (human orexin-2 receptor [1]) was 36 nM, the “Fold Selective” value (human orexin-2 receptor [1]) was over 278 and the IC50 (rat orexin-1 receptor) was over 10000 nM.

In the case of `Cc1cc(C)nc(N2CC3CC2CN(C(=O)c2nccnc2OCC(F)(F)C(F)F)C3)n1` (stereo not shown) [Example 51, (6-(4,6-dimethylpyrimidin-2-yl)-3,6-diazabicyclo[3.2.1]octan-3-yl)(3-(2,2,3,3-tetrafluoropropoxy)pyrazin-2-yl)methanone], the IC50 (human orexin-2 receptor [1]) is reported as 24 nM, the “Fold Selective” value (human orexin-2 receptor [1]) is reported as 112 and the IC50 (rat orexin-1 receptor) is reported as 2690 nM.

In the case of `Cc1cc(C)nc(N2CC3CC2CN(C(=O)c2nccnc2OC(C)C)C3)n1` (stereo not shown) [Example 52, 6-(4,6-dimethylpyrimidin-2-yl)-3-{[3-(1-methylethoxy)pyrazin-2-yl]carbonyl}-3,6-diazabicyclo[3.2.1]octane], the IC50 (human orexin-2 receptor [1]) is reported as 60 nM, the “Fold Selective” value (human orexin-2 receptor [1]) is reported as over 167 and the IC50 (rat orexin-1 receptor) is reported as over 10000 nM.

With `Cc1cc(C)nc(N2CC3CC2CN(C(=O)c2nccnc2OCC(C)(F)F)C3)n1` (stereo not shown) [Example 53, (3-(2,2-difluoropropoxy)pyrazin-2-yl)(6-(4,6-dimethylpyrimidin-2-yl)-3,6-diazabicyclo[3.2.1]octan-3-yl)methanone] the IC50 (human orexin-2 receptor [1]) was 39 nM, the “Fold Selective” value (human orexin-2 receptor [1]) was 165 and the IC50 (rat orexin-1 receptor) was 6450 nM.

For `Cc1ccc(-n2nccn2)c(C(=O)N2CCCN(c3nc4ccccc4o3)CC2)c1` [Example B-3], the “selectivity between the orexin-1 receptor and the orexin-2 receptor” value (human orexin-2 receptor [2]) is given as “greater selectivity for the orexin-1 receptor than for the orexin-2 receptor”.
